From ChEMBL document CHEMBL4613212, “Insights of synthetic analogues of anti-leprosy agents” (Bioorg Med Chem, 2019)

Tests used:
[1] = test system: Mycobacterium tuberculosis; assay: Antitubercular activity against Mycobacterium tuberculosis H37Rv ATCC 27294 assessed as growth inhibition at 12.5 ug/ml by microplate alamar blue assay relative to control; type: functional
[2] = test system: Vero; assay: Cytotoxicity against African green monkey Vero cells incubated for 72 hrs by MTT assay; type: cell-based, Chlorocebus sabaeus
[3] = Selectivity index, ratio of IC50 for African green monkey Vero cells to MIC for antitubercular activity against Mycobacterium tuberculosis H37Rv; type: toxicity; conditions: vero
[4] = test system: Mycobacterium tuberculosis; assay: Antitubercular activity against Mycobacterium tuberculosis H37Rv ATCC 27294 assessed as inhibition of [3H]-thymidine incorporation relative to control; type: functional
[5] = test system: Mycobacterium tuberculosis; assay: Antimycobacterial activity against Mycobacterium tuberculosis H37Rv infected in CF-1 mouse assessed as change in survival time at 2 mg/kg administrated daily for 14 days with food relative to control; type: functional
[6] = test system: Mycobacterium tuberculosis; assay: Antimycobacterial activity against Mycobacterium tuberculosis H37Rv infected in CF-1 mouse assessed as change in survival time at 4 mg/kg administrated daily for 14 days with food relative to control; type: functional
[7] = test system: Mycobacterium tuberculosis; assay: Antimycobacterial activity against Mycobacterium tuberculosis H37Rv infected in CF-1 mouse assessed as change in survival time at 850 mg/kg administrated daily for 14 days with food relative to control; type: functional
[8] = test system: Mycobacterium tuberculosis; assay: Antimycobacterial activity against Mycobacterium tuberculosis H37Rv infected in CF-1 mouse assessed as change in survival time at 6 mg/kg administrated daily for 14 days with food relative to control; type: functional
[9] = test system: Mycobacterium tuberculosis; assay: Antimycobacterial activity against Mycobacterium tuberculosis H37Rv infected in CF-1 mouse assessed as change in survival time at 42 mg/kg administrated daily for 14 days with food relative to control; type: functional
[10] = test system: Mycobacterium tuberculosis; assay: Antimycobacterial activity against Mycobacterium tuberculosis H37Rv infected in CF-1 mouse assessed as change in survival time at 24 mg/kg administrated daily for 14 days with food relative to control; type: functional
[11] = test system: Mycobacterium tuberculosis; assay: Antimycobacterial activity against Mycobacterium tuberculosis H37Rv infected in CF-1 mouse assessed as change in survival time at 8 mg/kg administrated daily for 14 days with food relative to control; type: functional
[12] = test system: Mycobacterium tuberculosis; assay: Antimycobacterial activity against Mycobacterium tuberculosis H37Rv infected in CF-1 mouse assessed as change in survival time at 11 mg/kg administrated daily for 14 days with food relative to control; type: functional
[13] = test system: Mycobacterium tuberculosis; assay: Antimycobacterial activity against Mycobacterium tuberculosis H37Rv infected in CF-1 mouse assessed as change in survival time at 41 mg/kg administrated daily for 14 days with food relative to control; type: functional
[14] = test system: Mycobacterium tuberculosis; assay: Antimycobacterial activity against Mycobacterium tuberculosis H37Rv infected in CF-1 mouse assessed as change in survival time at 25 mg/kg administrated daily for 14 days with food relative to control; type: functional
[15] = test system: Mycobacterium tuberculosis; assay: Antimycobacterial activity against Mycobacterium tuberculosis H37Rv infected in CF-1 mouse assessed as change in survival time at 5 mg/kg administrated daily for 14 days with food relative to control; type: functional
[16] = test system: Mycobacterium tuberculosis; assay: Antimycobacterial activity against Mycobacterium tuberculosis H37Rv infected in CF-1 mouse assessed as change in survival time at 3 mg/kg administrated daily for 14 days with food relative to control; type: functional
[17] = test system: Mycobacterium tuberculosis; assay: Antimycobacterial activity against Mycobacterium tuberculosis H37Rv infected in CF-1 mouse assessed as change in survival time at 12 mg/kg administrated daily for 14 days with food relative to control; type: functional

## Clc1nc(-c2ccccc2)c2ncn(Cc3ccccc3)c2n1
[1]
  inhibition at 12.5 µg/mL: > 90%
[2]
  IC50: Nd(Insoluble)
[3]
  Selectivity Index: Nd(Insoluble)
[4]
  inhibition (INH): 76%

## Nc1ccc(C(=O)O)c(O)c1 [AMINOSALICYLIC ACID]
[5]
  MST: 17 days
[6]
  MST: 26 days
[7]
  MST: 25 days
[8]
  MST: 52 days

## COc1ccc(/N=N/c2ccc(NCCCN3CCCCC3)c3c2CCCC3)cc1
[9]
  MST: 50 days
[10]
  MST: 26 days
[11]
  MST: 13 days
[6]
  MST: 11 days

## c1ccc(/N=N/c2ccc(NCCCN3CCCCC3)c3c2CCCC3)cc1
[12]
  MST: 13 days
[13]
  MST: 50 days
[14]
  MST: 37 days

## COc1ccc(/N=N/c2ccc(NCCCN3CCCCC3)c3c2CCCC3)cn1
[15]
  MST: 13 days
[16]
  MST: 10 days
[10]
  MST: 46 days
[17]
  MST: 31 days
